Common to all, as to assay type: cell-based
Experiment [1] concerns Staphylococcus aureus (g+) LMG 8064. Nature of the experiment: Poison Plate Assay, bacteria. The note with it: for MIC: LMG8064, 120 h, read-out: MIC-values (minimum inhibitory concentration) in ppm; for MIC-values (minimum inhibitory concentration) in ppm: fludioxonil (I-a) with sodium pyrithione (II-h). As for the experimental part: (§1) • Test models: • Fungi: to each well of a 24-well microtiter plate, 1000 μl of a rich (Potato Dextrose Agar, PDA: 4 g potato infusion, 20 g bacto dextrose and 15 g bacto agar in 1 liter deionised water) or poor (Glucose Agar, GA: 10 g glucose, 1.5 g K2HPO4, 2 g KH2PO4, 1 g (NH4)2SO4, 0.5 g MgSO4 and 12.5 g agar in 1 liter deionised water) medium containing the appropriate combination of the test compounds in one of the concentrations of a dose series is added. The nutrient medium is inoculated with the test fungi by adding a spore/mycelium suspension (10 μl) or a small piece of agar from the margin of an actively growing colony and incubated under dark at 27° C. with 70% relative humidity. The growth of the fungi is evaluated after two weeks. • Glucose agar was used in some experiments instead of PDA (Potato Dextrose Agar), as an alternative, poorer medium for the fungi, in order to increase the chances of detecting activity in compounds like fludioxonil, whose mode of action could be partly circumvented by fungi on a richer medium (Copping, L. and Hewitt, G. (1998) “Chemistry and mode of action of crop protection agents.” The Royal Society of Chemistry, Cambridge. 145 pp.). • Bacteria: to each well of a 24-well microtiter plate, 1000 μL Tryptose Agar (TA, 20 g bacto tryptose agar, 5 g sodium chloride, 1 g bacto dextrose and 15 g agar in 1 liter deionised water), containing the test compounds in one of the concentrations of a dose series is added. The nutrient medium is inoculated by adding 10 μl of an actively growing liquid culture of the test bacteria in tryptose broth (without agar), and incubated under dark at 27° C. with 70% relative humidity. Growth is evaluated after five days. • Concentrations: • MIC values for single compounds were collected from previous screening experiments. These MIC values were used as a guide in determining of the most suitable test dose ranges. • Synergy experiment with bispyrithione: • 25.00-18.75-14.06-10.55-7.91-5.93-4.45-3.34-2.50-1.88-1.41-1.06 ppm • Synergy experiment with sodium pyrithione: • 10.00-7.50-5.63-4.22-3.16-2.37-1.78-1.33-1.00-0.75-0.56-0.42 ppm Test combinations:
(§2) (2000) “Measuring synergy” cosmetics & Toiletries 115(11): 59-62; and Lada, A., A. N. Petrocci, H. A. Green, and J. J. Merianos (1977) “Antimicrobial composition” U.S. Pat. No. 4,061,750, 3 pp.):
(§3) [formula] wherein: • QA is the concentration of compound A in ppm, acting alone, which produced an end point (e.g. MIC), • Qa is the concentration of compound A in ppm, in the mixture, which produced an end point (e.g. MIC), • QB is the concentration of compound B in ppm, acting alone, which produced an end point (e.g. MIC), • Qb is the concentration of compound B in ppm, in the mixture, which produced an end point (e.g. MIC). […]

The test system of experiment [2] is Coriolus versicolor CTB863A. The experiment in a line: Poison Plate Assay, fungi. The note with it: Trametes versicolor, 336 h, read-out: MIC-values (minimum inhibitory concentration) in ppm. As for the experimental part:
as §1, §2, §3

The test system of experiment [3] is Ulocladium atrum IMI214699a. Nature of the experiment: Poison Plate Assay, fungi. The protocol:
as §1, §2, §3

Where [4] appears, read: ppm total active ingredient, Tryptose Agar, 27° C., growth evaluated after five days.

Read-outs that look alike come from different tables or passages of the source.

For `N#Cc1c[nH]cc1-c1cccc2c1OC(F)(F)O2` [fludioxonil (I-a), 4-(2,2-difluoro-1,3-benzodioxol-4-yl)-1H-pyrrole-3-carbonitrile], the MIC in experiment [1] came out at 40 µg/mL; in experiment [2], 40 µg/mL; in experiment [3] (Alternaria atra, IMI214699A, 336 h, read-out: MIC-values (minimum inhibitory concentration) in ppm) it was 100 µg/mL. In experiment [1] (setting [4]), the “MIC-values (minimum inhibitory concentration) in ppm” value worked out at 40.00 ppm.

Regarding `[O-][n+]1ccccc1SSc1cccc[n+]1[O-]` [pyrion disulfide (II-g), pyrion disulfide], the MIC in experiment [1] (fludioxonil (I-a) with pyrion disulfide (II-g), ppm total active ingredient, Tryptose Agar, 27° C., growth evaluated after five days) was 4.45 µg/mL; in experiment [2] (Coriolus versicolor, fludioxonil (I-a) with pyrion disulfide (II-g), ppm total active ingredient, 27° C., growth evaluated after two weeks), 18.8 µg/mL.

For the compound `[Na+].[O-][n+]1ccccc1[S-]` [sodium pyrithione (II-h), sodium pyrithione], the “MIC-values (minimum inhibitory concentration) in ppm” value amounted to 4.22 ppm in experiment [1] (setting [4]) and 2.37 ppm in experiment [3] (Ulocladium atrum, fludioxonil (I-a) with sodium pyrithione (II-h), ppm total active ingredient, 27° C., growth evaluated after two weeks).

These data come from patent US8043422B2, “Combinations of phenylpyrroles and pyrion compounds” (Janssen Pharmaceutica, NV, priority 2008, dated 2011).
